Columns and labels:
[1] = tested on: Rat Retinal Ischemia Reperfusion Model; assay: Protecting effect of retinal nerve in rat retinal ischemia reperfusion model (electroretinogram measurement); type: in vivo; conditions: SD rats, 30 min retinal ischemia; 10 mg/kg orally twice a day for 14 days from 2 days after reperfusion; ERG about 1 hour after final administration; distilled water control group 35%
Description: A rat retinal ischemia reperfusion model was prepared by a partially modified method of Steven Roth et al. (Experimental Eye Research, Vol. 65, pp. 771-779, 1997).
As experimental animals, SD rats (SPF, 9-week-old, male, approximately 300 g of body weight) were used. Such rats were anesthetized with halothane (introduction: 4%; retention: 2%; gas composition: 70% air+30% oxygen; gas flow rate: 2 L/min). The rat was placed on a fixing plate with the left body side upward. The skin located between the external acoustic foramen and the external canthus on the left side was incised, and the skin-incised portion was held with a hook. The temporal muscle was burned out with a bipolar coagulator (output: 4.5 W), and it was detached from the cranial bone and the mandibular arch. […]
ERG was measured in accordance with the method of Kawakami et al. (Gifu-dai Iki, Vol. 48, pp. 166-175, 2000). […] The obtained waveform was swept on a memory oscilloscope and then recorded by a thermal array recorder. […] ERG of the ischemic eye was evaluated as a ratio to the value of normal control eye. ERG was measured after adaptation to darkness at 2 days after retinal ischemia reperfusion, and at approximately 1 hour after the final administration.

SMILES | melting point [°C] | ratio of the ERG amplitude value of the ischemic eye to the normal control eye [1] [%]
Cl.OC1CN(CCOCCc2ccc3sccc3c2)C1 | 101 to 102 | –
O=C(O)/C=C\C(=O)O.OC1CN(CCCOCCc2ccc3sccc3c2)C1 [1-(3-(2-(1-benzothiophene-5-yl)ethoxy)propyl)-3-azetidinol maleate] | – | 65
